Experimental data published in article PMC8878107, “Human Enterovirus B: Selective Inhibition by Quinoxaline Derivatives and Bioinformatic RNA-Motif Identification as New Targets” (Pharmaceuticals, 2022).

Legend:
[1] = Cytotoxicity, MTT method, mock-infected Vero-76 cells; assay type: cell-based; conditions: African green monkey (Cercopithecus aethiops), concentration reducing viability of mock-infected Vero-76 cells by 50%, read-out: CC50 Vero76
Protocol: (§1) HeLa cells were seeded in 96-well plates at a density of 5 × 10^5 cells/mL, in minimum essential medium with Earle’s salts (MEM-E), L-glutamine, 1 mM sodium pyruvate, and 25 mg/L kanamycin, supplemented with 10% fetal bovine serum (FBS). Vero-76 and LLC-MK2 cells were seeded in 96-well plates at a density of 5 × 10^5 cells/mL in Dulbecco’s modified eagle medium (D-MEM) with L-glutamine and 25 mg/L kanamycin, complemented with 10% FBS. Cell cultures were then incubated in a humidified, 5% CO2 atmosphere at 37 °C, with or without serial dilutions of analyzed compounds. The medium used for the cytotoxic assay, as well as for antiviral assays, included 1% of the proper serum. Cell viability was determined after 72–120h at 37 °C by MTT method.
(§2) The size of cell growth/viability and viral multiplication at each tested drug concentration was expressed as percentage of untreated controls. Concentrations resulting in 50% inhibition (CC50 or EC50) were determined by linear regression analysis.

[2] = Cytotoxicity, MTT method, mock-infected HeLa cells; assay type: cell-based; conditions: human, concentration reducing viability of mock-infected HeLa cells by 50%
Protocol: as §1, §2

[3] = Cytotoxicity, MTT method, mock-infected LLC-MK2 cells; assay type: cell-based; conditions: rhesus monkey, concentration reducing viability of mock-infected LLC-MK2 cells by 50%
Protocol: as §1, §2

[4] = tested on: CVB4; test: Plaque-reduction assay, CVB4 in Vero-76 cells; assay type: cell-based, human enterovirus B
Protocol: (§3) The activity of compounds against EV-A71 and D68 was based on inhibition of virus-induced cytopathogenicity in HeLa and Vero-76 cells, respectively, acutely infected at a multiplicity of infection (m.o.i.) of 0.01. After a 72 or 120 h incubation at 37 °C, cell viability was verified by the MTT method, as previously described. The activity of compounds against CVB3, CVB4, CVB5, and E9 was determined in infected cell monolayers by plaque-reduction assays, as previously reported. Briefly, the monolayer of Vero-76 cells or LLC-MK2 (E9) was grown overnight on a 24-well plate. The cells were then infected for 2 h with 250 μL of proper virus dilutions to obtain 50–100 PFU/well. Following removal of the unadsorbed virus, 500 μL of the medium (D-MEM with L-glutamine, 4500 mg/L D-glucose, and 1% inactivated FBS) containing 0.75% methyl-cellulose, with serial dilutions of quinoxalines, was added. The overlay was also added to untreated wells (non-infection controls). Cultures were incubated at 37 °C for 3 (CVB3, CVB4, CVB5) or 5 days (E9) and then fixed with PBS containing 50% ethanol and 0.8% crystal violet, washed and air-dried. Plaques were then counted.
as §2

[5] = tested on: CVB3; test: Plaque-reduction assay, CVB3 in Vero-76 cells; assay type: cell-based, human enterovirus B
Protocol: as §3, §2

[6] = tested on: E9; test: Plaque-reduction assay, E9 in LLC-MK2 cells; assay type: cell-based, human enterovirus B; conditions: Enterovirus B; for EC50: concentration reducing plaque number by 50%
Protocol: as §3, §2

[7] = tested on: EV-A71; test: Inhibition of EV-A71-induced cytopathogenicity, MTT method; assay type: cell-based, human enterovirus A71; conditions: Enterovirus A, EVA71, 96 h, 50% protection of Vero-76 cells from EV-A71-induced cytopathogenicity, day 4/5 p.i.
[8] = tested on: EV-D68; test: Inhibition of EV-D68-induced cytopathogenicity, MTT method; assay type: cell-based, human enterovirus D 68; conditions: Enterovirus D, EVD68, 72 h; HeLa cells, MTT method after 3 days p.i.
Protocol: as §3, with “After” for “The activity of compounds against EV-A71 and D68 was based on inhibition of virus-induced cytopathogenicity in HeLa and Vero-76 cells, respectively, acutely infected at a multiplicity of infection (m.o.i.) of 0.01. After”
as §2

[9] = tested on: CVB4; test: Virus yield reduction assay (YRA), CVB4 in Vero-76 cells; assay type: cell-based, human enterovirus B; conditions: m.o.i. 0.1, 72 h
Protocol: (§4) Vero-76 and LL-MKC cells were inoculated with CVB3, CVB4, or E9 at an m.o.i. of 0.1 in maintenance medium and compounds at non-cytotoxic concentrations. After the adsorption period (2 h) at 37 °C and 5% CO2, the inoculum was removed and replaced with fresh medium containing the same concentration of compounds. After 72 h for CVB3 and CVB4 or 120 h for E9 at 37 °C and 5% CO2, each sample was collected and diluted with serial passages, starting from 10^−1, up to 10^−10. The titers of the supernatants were quantified by standard plaque assay. NM 107 (2’-C-Methyl-Cytidine) and pleconaril were employed as reference compounds.

[10] = tested on: CVB3; test: Virus yield reduction assay (YRA), CVB3 in Vero-76 cells; assay type: cell-based, human enterovirus B; conditions: m.o.i. 0.1, 72 h; for Reduction of CVB3 viral titers (trend over concentrations): non-cytotoxic concentrations (100, 20, 4, 0.8 µM)
Protocol: as §4

[11] = tested on: CVB3; test: Adsorption assay, CVB3 in Vero-76 cells; assay type: cell-based, human enterovirus B; conditions: 20 µM, 2 h at 4 °C, m.o.i. 0.1, Vero-76 cells
Protocol: (§5) Vero-76 cells were incubated with CVB3 and CVB4 (m.o.i. = 0.1) and derivatives 6 or 7 for 2 h at 4 °C, using compound concentrations of 20 µM. […] LLC-MK2 cells were incubated with E9 and derivative 8 (Figure 3e) under the above-described experimental conditions. To identify the replication stage inhibited by quinoxaline derivatives, we performed a time-of-drug addiction assay (T.O.A.) (Figure 3a–e). Experiments were carried out on CVB3-, CVB4-,and E9-infected cells (m.o.i. = 1) treated with compounds (20 µM) at different step times of infection until 12 h post-infection, followed by virus titer determination by plaque assay.
(§6) Vero-76 and LLC-MK2 cells grown in 24-well plates were infected with CVB3, CVB4, and E9, at an m.o.i. of 0.1, with or without test compounds, and incubated for 120 min at 4 °C. Medium containing unbound virus was then removed, and cells were washed twice with PBS and overlayed with fresh medium. Plaques were counted after 72 h of incubation at 37 °C.

[12] = tested on: CVB4; test: Adsorption assay, CVB4 in Vero-76 cells; assay type: cell-based, human enterovirus B; conditions: 20 µM, 2 h at 4 °C, m.o.i. 0.1, Vero-76 cells
Protocol: as §5, §6

[13] = tested on: E9; test: Virus yield reduction assay (YRA), E9 in LLC-MK2 cells; assay type: cell-based, human enterovirus B
Protocol: as §4

[14] = Enterovirus B, CVB4, Vero 76, concentration reducing plaque number by 50%
[15] = Enterovirus B, CVB4, Vero 76, concentration reducing plaque number by 90%
[16] = Enterovirus B, CVB3, Vero 76, concentration reducing plaque number by 50%
[17] = Enterovirus B, CVB3, Vero 76, concentration reducing plaque number by 90%
[18] = concentration reducing plaque number by 50%
[19] = concentration reducing plaque number by 90%

Structure (SMILES) | CC50 [1] [µM] | CC50 [2] [µM] | CC50 [3] [µM] | EC50 [4, 14] [µM] | EC90 [4, 15] [µM] | EC50 [5, 16] [µM] | EC90 [5, 17] [µM] | EC50 [5, 18] [µM] | EC50 [6] [µM] | EC50 [7] [µM] | EC50 [8] [µM] | Reduction of CVB3 viral titers (trend over concentrations) [10] | CVB3 virus titer in comparison to the untreated infected control [11] | CVB4 virus titer in comparison to the untreated infected control [12] | other results
CCOC(=O)c1ccc(SCc2ccc3nc(OC)c(OC)nc3c2)cc1 [Compound 6] | > 100 | > 100 | > 100 | 1.7 | 12 | 2 to 3 | 12 | 2.5 | > 100 | > 100 | > 100 | same trend of reduction in viral loads | detectable reduction of the virus titer | detectable reduction of the virus titer | EC90 [5, 19]: 13 µM; Reduction of CVB4 viral titers ([9]; 0.8 µM): 2 logs; Reduction of CVB4 viral titers ([9]; 4 µM): 2.5 logs; Effect on CVB4 viral titers ([9]; 100 and 20 µM): complete suppression
COc1nc2ccc(CSc3ccc(C(=O)O)cc3)cc2nc1OC [Compound 7] | 100 | 95 | 100 | 1.5 | 3 | 2 to 3 | 14 | 2 | > 100 | > 100 | > 95 | dose-dependent reduction of viral titers | detectable reduction of the virus titer | detectable reduction of the virus titer | EC50 [4, 18]: 1.45 µM; EC90 [4, 19]: 3.2 µM; Inhibition of CVB4 ([9]; 0.8 µM): no significant inhibition; Production of CVB4 virus ([9]; 100, 20, and 4 µM): completely inhibited; Reduction in CVB3 viral load ([10]; 4 µM): one log reduction in viral load
CCOC(=O)c1ccc(SCc2ccc3nc(OC)c(OC)nc3c2)nc1 [Compound 8] | > 100 | > 100 | > 100 | > 100 |  | > 100 |  |  | 6 | > 100 | 50 |  |  |  | EC90 [6, 19]: 16 µM; Effect on E9 viral replication ([13]; 100 and 20 µM, m.o.i. 0.1, 120 h): completely suppressed viral replication; Reduction in E9 viral loads ([13]; lower concentrations (below 20 µM)): no reduction in viral loads
COc1nc2ccc(CSc3ccc(C(=O)O)cn3)cc2nc1OC [Compound 9] | 100 | > 100 | 100 | > 100 |  | 100 |  |  | 55 | > 100 | 70 |  |  |  | 
C[C@@]1(O)[C@H](O)[C@@H](CO)O[C@H]1n1ccc(N)nc1=O [NM107, 2′-C-methylcytidine, reference compound] | > 100 |  |  |  |  | 29 ± 3 |  |  |  | 6 ± 1 |  |  |  |  | 
Cc1cc(CCCOc2c(C)cc(-c3noc(C(F)(F)F)n3)cc2C)on1 [PLe, Pleconaril, reference compound] | > 100 | > 100 | > 100 | 2 ± 1 |  |  |  |  | 0.1 ± 0.05 |  | 0.4 ± 0.2 |  |  |  | 
